In patent US20260317320A1, “C5AR1 ANTAGONISTS AND USES THEREOF” (Vanqua Bio, Inc., priority 2022, published 2026):
Read-outs that look alike come from different tables or passages of the source.

Key:
[1] = biological target: T1, complement C5a receptor 1 (C5aR1) (Homo sapiens, UniProt P21730); experiment: β-arrestin recruitment via C5aR1 activation in live CHO-K1 cells (PathHunter), antagonist mode; assay type: cell-based; conditions: antagonist mode; recombinant hC5a (EC90) as competing natural agonist; live CHO-K1 cells; read-out: [Antagonist] B-arrestin2 recruitment: Average IC50
T1 construct: β-galactosidase fragment (PathHunter enzyme complementation); host or cells: CHO-K1 (PathHunter CHO-K1 C5aR1 β-arrestin cell line)
T1 sequence (P21730 1-350): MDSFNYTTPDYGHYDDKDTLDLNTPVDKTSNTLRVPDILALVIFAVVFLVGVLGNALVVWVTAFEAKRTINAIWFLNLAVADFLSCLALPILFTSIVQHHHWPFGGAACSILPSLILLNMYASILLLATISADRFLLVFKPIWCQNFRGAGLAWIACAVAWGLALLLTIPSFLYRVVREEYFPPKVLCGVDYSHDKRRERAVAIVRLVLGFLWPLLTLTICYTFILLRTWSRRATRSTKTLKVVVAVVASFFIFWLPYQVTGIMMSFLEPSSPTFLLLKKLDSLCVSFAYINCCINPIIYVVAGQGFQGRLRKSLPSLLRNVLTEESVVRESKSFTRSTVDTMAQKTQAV
Outline: (§1)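 β-arrestin recruitment to C5aR1 in CHO-K1 cells is detected by enzyme-fragment complementation. Antagonism is measured against recombinant hC5a at its EC90; agonism is measured with compound alone. Potencies are grouped into IC50 categories.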

[2] = biological target: T1, complement C5a receptor 1 (C5aR1); experiment: β-arrestin recruitment via C5aR1 activation in live CHO-K1 cells (PathHunter), agonist mode; assay type: cell-based
Outline: as §1

SMILES	IC50 [1] [µM]	[Agonist] B-arrestin2 recruitment: Average EC50 (nM) ([2]; at 10 μM)	[Agonist] B-arrestin2 recruitment: Average EC50 (nM) [2]
Cc1cnc2cc(C3CCN(c4c(F)ccc5c4cnn5C)CC3)c(=O)n(Cc3ncccc3C(F)(F)F)c2n1 [compound 184, 7-(1-(5-Fluoro-1-methyl-1H-indazol-4-yl)piperidin-4-yl)-3-methyl-5-((3-(trifluoromethyl)pyridin-2-yl)methyl)pyrido[2,3-b]pyrazin-6(5H)-one]	0.5 to 5	Non-Active at 10 μM	–
Cc1cnc2cc(C3CCN(c4c(C)ccc5c4cnn5C)CC3)c(=O)n(Cc3ncccc3C(F)(F)F)c2n1 [compound 185, 7-(1-(1,5-Dimethyl-1H-indazol-4-yl)piperidin-4-yl)-3-methyl-5-((3-(trifluoromethyl)pyridin-2-yl)methyl)pyrido[2,3-b]pyrazin-6(5H)-one]	0.5 to 5	Non-Active at 10 μM	–
Cc1cnc2cc(C3CCN(c4nn(C)c5ccccc45)CC3)c(=O)n(Cc3ncccc3C(F)(F)F)c2n1 [compound 186, 3-Methyl-7-(1-(1-methyl-1H-indazol-3-yl)piperidin-4-yl)-5-((3-(trifluoromethyl)pyridin-2-yl)methyl)pyrido[2,3-b]pyrazin-6(5H)-one]	5 to 100	Non-Active at 10 μM	–
Cc1cnc2cc([C@H]3CC[C@H](c4c(C)nn(C)c4C)CC3)c(=O)n(Cc3ncccc3C(F)(F)F)c2n1 [compound 190, 3-Methyl-5-((3-(trifluoromethyl)pyridin-2-yl)methyl)-7-((1r,4r)-4-(1,3,5-trimethyl-1H-pyrazol-4-yl)cyclohexyl)pyrido[2,3-b]pyrazin-6(5H)-one]	0.5 to 5	Non-Active at 10 μM	–
Cc1cnc2cc([C@H]3CC[C@H](c4nn(C)c5ccccc54)CC3)c(=O)n(Cc3ncccc3C(F)(F)F)c2n1 [compound 191, 3-Methyl-7-((1r,4r)-4-(1-methyl-1H-indazol-3-yl)cyclohexyl)-5-((3-(trifluoromethyl)pyridin-2-yl)methyl)pyrido[2,3-b]pyrazin-6(5H)-one]	5 to 100	Non-Active at 10 μM	–
Cc1cnc2cc([C@H]3CC[C@H](c4ccc5c(cnn5C)c4)CC3)c(=O)n(Cc3ncccc3C(F)(F)F)c2n1 [compound 192, 3-Methyl-7-((1r,4r)-4-(1-methyl-1H-indazol-5-yl)cyclohexyl)-5-((3-(trifluoromethyl)pyridin-2-yl)methyl)pyrido[2,3-b]pyrazin-6(5H)-one]	0.5 to 5	Non-Active at 10 μM	–
COc1cccnc1Cn1c(=O)c([C@H]2CC[C@H](c3c(C)cccc3F)CC2)cc2ncc(C)nc21 [compound 199, 7-((1r,4r)-4-(2-Fluoro-6-methylphenyl)cyclohexyl)-5-((3-methoxypyridin-2-yl)methyl)-3-methylpyrido[2,3-b]pyrazin-6(5H)-one]	< 0.5	–	Non-Active
CCc1cnc2cc([C@H]3CC[C@H](c4c(C)cccc4F)CC3)c(=O)n(Cc3ncccc3C(F)(F)F)c2n1 [compound 201, 3-Ethyl-7-((1r,4r)-4-(2-fluoro-6-methylphenyl)cyclohexyl)-5-((3-(trifluoromethyl)pyridin-2-yl)methyl)pyrido[2,3-b]pyrazin-6(5H)-one]	< 0.5	Non-Active at 10 μM	–
Cc1cnc2cc([C@H]3CC[C@H](c4ccccc4C(F)(F)F)CC3)c(=O)n(Cc3ncccc3C(F)(F)F)c2n1 [compound 202, 3-Methyl-7-((1r,4r)-4-(2-(trifluoromethyl)phenyl)cyclohexyl)-5-((3-(trifluoromethyl)pyridin-2-yl)methyl)pyrido[2,3-b]pyrazin-6(5H)-one]	< 0.5	Non-Active at 10 μM	–
CCc1cnc2cc([C@H]3CC[C@H](c4c(C)cccc4F)CC3)c(=O)n(Cc3ncccc3OC(F)(F)F)c2n1 [compound 204, 3-Ethyl-7-((1r,4r)-4-(2-fluoro-6-methylphenyl)cyclohexyl)-5-((3-(trifluoromethoxy)pyridin-2-yl)methyl)pyrido[2,3-b]pyrazin-6(5H)-one]	< 0.5	Non-Active at 10 μM	–
Cc1ccc2cc([C@H]3CC[C@H](c4c(C)cccc4F)CC3)c(=O)n(Cc3nccnc3C)c2n1 [compound 206, 3-((1r,4r)-4-(2-fluoro-6-methylphenyl)cyclohexyl)-7-methyl-1-((3-methylpyrazin-2-yl)methyl)-1,8-naphthyridin-2(1H)-one]	0.5 to 5	Non-Active at 10 μM	–

Continued, values first:

IC50 [1] [µM]	[Agonist] B-arrestin2 recruitment: Average EC50 (nM) ([2]; at 10 μM)	[Agonist] B-arrestin2 recruitment: Average EC50 (nM) [2]	SMILES
< 0.5	Non-Active at 10 μM	–	Cc1cnc2cc([C@H]3CC[C@H](c4cnccc4C(C)(F)F)CC3)c(=O)n(Cc3ncccc3C(F)(F)F)c2n1 [compound 188, 7-((1r,4r)-4-(4-(1,1-Difluoroethyl)pyridin-3-yl)cyclohexyl)-3-methyl-5-((3-(trifluoromethyl)pyridin-2-yl)methyl)pyrido[2,3-b]pyrazin-6(5H)-one]
< 0.5	Non-Active at 10 μM	–	COc1ccnc(F)c1[C@H]1CC[C@H](c2cc3ncc(C)nc3n(Cc3ncccc3C(F)(F)F)c2=O)CC1 [compound 189, 7-((1r,4r)-4-(2-Fluoro-4-methoxypyridin-3-yl)cyclohexyl)-3-methyl-5-((3-(trifluoromethyl)pyridin-2-yl)methyl)pyrido[2,3-b]pyrazin-6(5H)-one]
< 0.5	–	Non-Active	Cc1ccc2cc([C@H]3CC[C@H](c4c(C)cccc4F)CC3)c(=O)n(Cc3ncccc3C(F)F)c2n1 [compound 193, 1-((3-(Difluoromethyl)pyridin-2-yl)methyl)-3-((1r,4r)-4-(2-fluoro-6-methylphenyl)cyclohexyl)-7-methyl-1,8-naphthyridin-2(1H)-one]
< 0.5	–	Non-Active	Cc1ccc2cc([C@H]3CC[C@H](c4c(C)cccc4F)CC3)c(=O)n(Cc3nccnc3C(F)(F)F)c2n1 [compound 194, 3-((1r,4r)-4-(2-Fluoro-6-methylphenyl)cyclohexyl)-7-methyl-1-((3-(trifluoromethyl)pyrazin-2-yl)methyl)-1,8-naphthyridin-2(1H)-one]
< 0.5	–	Non-Active	Cc1ccc2cc([C@H]3CC[C@H](c4c(C)cccc4F)CC3)c(=O)n(Cc3ncccc3OC(F)F)c2n1 [compound 195, 1-((3-(Difluoromethoxy)pyridin-2-yl)methyl)-3-((1r,4r)-4-(2-fluoro-6-methylphenyl)cyclohexyl)-7-methyl-1,8-naphthyridin-2(1H)-one]
< 0.5	–	Non-Active	Cc1ccc2cc([C@H]3CC[C@H](c4c(C)cccc4F)CC3)c(=O)n(Cc3ncccc3OC(F)(F)F)c2n1 [compound 196, 3-((1r,4r)-4-(2-Fluoro-6-methylphenyl)cyclohexyl)-7-methyl-1-((3-(trifluoromethoxy)pyridin-2-yl)methyl)-1,8-naphthyridin-2(1H)-one]
< 0.5	–	Non-Active	Cc1ncc2cc([C@H]3CC[C@H](c4c(C)cccc4F)CC3)c(=O)n(Cc3ncccc3OC(F)(F)F)c2n1 [compound 198, 6-((1r,4r)-4-(2-Fluoro-6-methylphenyl)cyclohexyl)-2-methyl-8-((3-(trifluoromethoxy)pyridin-2-yl)methyl)pyrido[2,3-d]pyrimidin-7(8H)-one]
